Source: the NIST ThermoML archive (doi:10.1021/acs.jced.8b00975)
Numbers after ± are expanded uncertainties.

Experiment: xn = mol fraction of the nth substance listed
Details: Liquid, Vibrating tube method

C=C(C)C(=O)OCCN(C)C [2-(dimethylamino)ethyl methylpropenoate] + CO
mass density [kg/m3]
Details	100 kPa	5000 kPa	10000 kPa	15000 kPa	20000 kPa	25000 kPa	30000 kPa	35000 kPa
293.15 K, x1 = 0.0227	806.56 ± 0.51	811.24 ± 0.52	815.62 ± 0.53	819.73 ± 0.54	823.64 ± 0.55	827.39 ± 0.56	831.04 ± 0.57	834.64 ± 0.58
293.15 K, x1 = 0.0807	837.79 ± 0.51	842.2 ± 0.52	846.3 ± 0.52	850.16 ± 0.53	853.82 ± 0.54	857.37 ± 0.54	860.86 ± 0.55	864.36 ± 0.56
293.15 K, x1 = 0.1196	853.33 ± 0.51	857.5 ± 0.51	861.44 ± 0.52	865.18 ± 0.52	868.77 ± 0.53	872.24 ± 0.54	875.62 ± 0.54	878.97 ± 0.55
293.15 K, x1 = 0.2003	877.11 ± 0.51	881.14 ± 0.51	884.9 ± 0.52	888.45 ± 0.52	891.85 ± 0.53	895.18 ± 0.53	898.5 ± 0.53	901.87 ± 0.54
293.15 K, x1 = 0.3189	898.63 ± 0.51	902.57 ± 0.51	906.24 ± 0.52	909.71 ± 0.52	913.03 ± 0.52	916.26 ± 0.53	919.46 ± 0.53	922.7 ± 0.53
293.15 K, x1 = 0.4003	908.22 ± 0.51	912.08 ± 0.51	915.72 ± 0.52	919.18 ± 0.52	922.49 ± 0.52	925.73 ± 0.53	928.92 ± 0.53	932.12 ± 0.53
293.15 K, x1 = 0.4502	912.84 ± 0.51	916.76 ± 0.51	920.42 ± 0.52	923.87 ± 0.52	927.16 ± 0.52	930.33 ± 0.53	933.44 ± 0.53	936.53 ± 0.53
293.15 K, x1 = 0.4914	916.03 ± 0.51	919.88 ± 0.51	923.47 ± 0.52	926.87 ± 0.52	930.13 ± 0.52	933.31 ± 0.53	936.47 ± 0.53	939.66 ± 0.53
293.15 K, x1 = 0.5451	919.46 ± 0.51	923.35 ± 0.52	926.95 ± 0.52	930.34 ± 0.52	933.58 ± 0.52	936.74 ± 0.53	939.88 ± 0.53	943.07 ± 0.53
293.15 K, x1 = 0.6446	924.39 ± 0.52	928.12 ± 0.52	931.65 ± 0.52	935.02 ± 0.53	938.27 ± 0.53	941.45 ± 0.53	944.62 ± 0.53	947.8 ± 0.53
293.15 K, x1 = 0.6899	926.07 ± 0.52	929.92 ± 0.52	933.48 ± 0.52	936.82 ± 0.53	940.01 ± 0.53	943.12 ± 0.53	946.23 ± 0.53	949.4 ± 0.54
293.15 K, x1 = 0.8265	930.1 ± 0.53	933.94 ± 0.53	937.53 ± 0.53	940.91 ± 0.54	944.15 ± 0.54	947.29 ± 0.54	950.41 ± 0.54	953.56 ± 0.55
293.15 K, x1 = 0.8957	931.56 ± 0.53	935.27 ± 0.54	938.82 ± 0.54	942.24 ± 0.54	945.55 ± 0.55	948.77 ± 0.55	951.92 ± 0.55	955.03 ± 0.55
293.15 K, x1 = 0.9213	931.89 ± 0.53	935.76 ± 0.54	939.37 ± 0.54	942.76 ± 0.55	946.01 ± 0.55	949.17 ± 0.55	952.32 ± 0.55	955.5 ± 0.56
293.15 K, x1 = 0.977	932.63 ± 0.54	936.53 ± 0.54	940.13 ± 0.55	943.52 ± 0.55	946.76 ± 0.55	949.92 ± 0.56	953.08 ± 0.56	956.32 ± 0.56
303.15 K, x1 = 0.0301	802.01 ± 0.51	806.85 ± 0.52	811.37 ± 0.53	815.62 ± 0.54	819.63 ± 0.55	823.45 ± 0.56	827.13 ± 0.57	830.7 ± 0.58
303.15 K, x1 = 0.0604	818.68 ± 0.51	823.37 ± 0.52	827.77 ± 0.52	831.91 ± 0.53	835.85 ± 0.54	839.61 ± 0.55	843.23 ± 0.56	846.75 ± 0.57
303.15 K, x1 = 0.1003	836.41 ± 0.51	840.87 ± 0.52	845.1 ± 0.52	849.12 ± 0.53	852.97 ± 0.54	856.67 ± 0.54	860.27 ± 0.55	863.78 ± 0.56
303.15 K, x1 = 0.1894	864.5 ± 0.51	868.73 ± 0.51	872.74 ± 0.52	876.58 ± 0.52	880.26 ± 0.53	883.85 ± 0.53	887.36 ± 0.54	890.85 ± 0.55
303.15 K, x1 = 0.3009	886 ± 0.51	890.03 ± 0.51	893.92 ± 0.52	897.69 ± 0.52	901.34 ± 0.53	904.9 ± 0.53	908.38 ± 0.53	911.78 ± 0.54
303.15 K, x1 = 0.4011	898.17 ± 0.51	902.15 ± 0.51	905.98 ± 0.52	909.67 ± 0.52	913.27 ± 0.53	916.78 ± 0.53	920.23 ± 0.53	923.64 ± 0.53
303.15 K, x1 = 0.4497	902.64 ± 0.51	906.61 ± 0.52	910.42 ± 0.52	914.09 ± 0.52	917.65 ± 0.52	921.14 ± 0.53	924.58 ± 0.53	928.02 ± 0.53
303.15 K, x1 = 0.5004	906.39 ± 0.51	910.32 ± 0.52	914.1 ± 0.52	917.76 ± 0.52	921.33 ± 0.53	924.83 ± 0.53	928.29 ± 0.53	931.73 ± 0.53
303.15 K, x1 = 0.5484	909.57 ± 0.51	913.52 ± 0.52	917.31 ± 0.52	920.96 ± 0.52	924.51 ± 0.53	928 ± 0.53	931.44 ± 0.53	934.88 ± 0.53
303.15 K, x1 = 0.6026	912.38 ± 0.52	916.33 ± 0.52	920.1 ± 0.52	923.74 ± 0.53	927.27 ± 0.53	930.75 ± 0.53	934.2 ± 0.53	937.68 ± 0.54
303.15 K, x1 = 0.701	916.45 ± 0.52	920.39 ± 0.52	924.17 ± 0.53	927.81 ± 0.53	931.36 ± 0.53	934.84 ± 0.54	938.28 ± 0.54	941.72 ± 0.54
303.15 K, x1 = 0.7881	919.15 ± 0.52	923.04 ± 0.53	926.8 ± 0.53	930.44 ± 0.54	934.01 ± 0.54	937.52 ± 0.54	941.01 ± 0.55	944.48 ± 0.55
303.15 K, x1 = 0.897	921.41 ± 0.53	925.26 ± 0.54	929.01 ± 0.54	932.67 ± 0.55	936.24 ± 0.55	939.76 ± 0.55	943.23 ± 0.56	946.67 ± 0.56
303.15 K, x1 = 0.9286	922.08 ± 0.54	926.03 ± 0.54	929.81 ± 0.54	933.47 ± 0.55	937.03 ± 0.55	940.52 ± 0.56	943.99 ± 0.56	947.48 ± 0.56
303.15 K, x1 = 0.961	922.67 ± 0.54	926.57 ± 0.54	930.33 ± 0.55	933.98 ± 0.55	937.54 ± 0.56	941.04 ± 0.56	944.51 ± 0.56	947.99 ± 0.56
313.15 K, x1 = 0.0303	792.52 ± 0.51	797.34 ± 0.52	802.01 ± 0.53	806.47 ± 0.54	810.73 ± 0.55	814.85 ± 0.56	818.84 ± 0.58	822.75 ± 0.59
313.15 K, x1 = 0.0601	808.67 ± 0.51	813.36 ± 0.52	817.9 ± 0.53	822.24 ± 0.54	826.41 ± 0.55	830.42 ± 0.56	834.31 ± 0.57	838.11 ± 0.58
313.15 K, x1 = 0.1002	826.53 ± 0.51	831.11 ± 0.52	835.57 ± 0.52	839.84 ± 0.53	843.93 ± 0.54	847.86 ± 0.55	851.66 ± 0.56	855.32 ± 0.57
313.15 K, x1 = 0.2005	857.05 ± 0.51	861.4 ± 0.52	865.62 ± 0.52	869.66 ± 0.53	873.55 ± 0.53	877.31 ± 0.54	880.98 ± 0.54	884.59 ± 0.55
313.15 K, x1 = 0.3009	876.08 ± 0.51	880.25 ± 0.52	884.34 ± 0.52	888.29 ± 0.52	892.1 ± 0.53	895.78 ± 0.53	899.34 ± 0.54	902.8 ± 0.54
313.15 K, x1 = 0.4008	888.55 ± 0.51	892.6 ± 0.52	896.62 ± 0.52	900.51 ± 0.52	904.28 ± 0.53	907.92 ± 0.53	911.43 ± 0.54	914.81 ± 0.54
313.15 K, x1 = 0.4516	893.1 ± 0.51	897.1 ± 0.52	901.09 ± 0.52	904.98 ± 0.52	908.76 ± 0.53	912.41 ± 0.53	915.91 ± 0.54	919.27 ± 0.54
313.15 K, x1 = 0.49	896.14 ± 0.51	900.12 ± 0.52	904.09 ± 0.52	907.97 ± 0.52	911.73 ± 0.53	915.36 ± 0.53	918.87 ± 0.54	922.22 ± 0.54
313.15 K, x1 = 0.552	900.13 ± 0.51	904.12 ± 0.52	908.1 ± 0.52	911.97 ± 0.53	915.72 ± 0.53	919.34 ± 0.53	922.83 ± 0.54	926.18 ± 0.54
313.15 K, x1 = 0.5881	902.29 ± 0.52	906.26 ± 0.52	910.2 ± 0.52	914.04 ± 0.53	917.76 ± 0.53	921.35 ± 0.53	924.82 ± 0.54	928.16 ± 0.54
313.15 K, x1 = 0.7048	907.14 ± 0.52	911.12 ± 0.52	915.08 ± 0.53	918.92 ± 0.53	922.65 ± 0.54	926.25 ± 0.54	929.72 ± 0.54	933.06 ± 0.55
313.15 K, x1 = 0.8042	910.23 ± 0.53	914.21 ± 0.53	918.18 ± 0.54	922.04 ± 0.54	925.78 ± 0.54	929.4 ± 0.55	932.87 ± 0.55	936.18 ± 0.55
313.15 K, x1 = 0.8998	912.3 ± 0.53	916.37 ± 0.54	920.38 ± 0.54	924.25 ± 0.55	927.99 ± 0.55	931.6 ± 0.56	935.1 ± 0.56	938.49 ± 0.56
313.15 K, x1 = 0.9373	913.06 ± 0.54	917.05 ± 0.54	921 ± 0.55	924.83 ± 0.55	928.56 ± 0.56	932.18 ± 0.56	935.71 ± 0.56	939.17 ± 0.57
313.15 K, x1 = 0.9651	913.5 ± 0.54	917.5 ± 0.54	921.47 ± 0.55	925.34 ± 0.55	929.11 ± 0.56	932.78 ± 0.56	936.35 ± 0.57	939.83 ± 0.57
